Assay results taken from patent US20240269305A1, “STING AGONIST SUITABLE AS PAYLOAD OF ANTIBODY DRUG CONJUGATE” (HITGEN INC., priority 2021, published 2024).

Legend:
[1] = Cytotoxicity in THP1-Blue ISG cells (Celltiter Glo); type: cell-based, human; settings: Celltiter Glo luminescence; for CC50 at 18 h: human
Procedure: (§1) In this experiment, THP1-Blue™ ISG (interferon-stimulated genes) cell line (InvivoGen, catalog number: thp-isg) was used to evaluate the activating of interferon signaling pathway after the treatment by the compounds. THP1-Blue™ ISG cells were cultured using RPMI1640 medium (containing 10% heat-inactivated fetal bovine serum, 100 μg/ml Zeocin™, InvivoGen, catalog number: ant-zn-1). On the first day of the experiment, the compound was dissolved in DMSO as a stock solution, which was then diluted with culture medium to 2× working concentration and then 100 μL per well of the above dilution was added to a 96-well plate; THP1 cells in the logarithmic growth phase were counted and diluted to a concentration of 1*10^6 cells/mL, which was then added at 100 μL per well (1*10^5 cells/well) to the aforementioned 96-well plate containing the compounds. After mixed, the above cells in the 96-well plate were incubated at 37° C. with 5% CO2 for 18 h. On the second day, the above cell culture supernatant was aspirated at 20 μL per well, which was added to a new 96-well plate. And then 180 μL per well of QUANTI-Blue™ solution (InvivoGen, catalog number: rep-qbs1) was added. The above cells in the 96-well plate were incubated at 37° C. for 1 h. OD (620-655 nm) value was read on a Microplate Reader, and the EC50 value was calculated by using GraphPad to fit the dose-effect curve. 50 μL of Celltiter Glo solution (Promega, Cat. No. G756B) was added to the remaining cell culture plates.

[2] = test system: STING signaling pathway; test: Cytokine secretion in PBMC (ELISA); type: cell-based; settings: 6 h
Procedure: (§2) The following experiments were performed to determine the activation effect of the compound on the STING signaling pathway in PBMC cells, which mainly using ELISA to detect the secretion of IL-6, TNF-, IFN-, and IFN- in the cell culture supernatant. At the same time, CTG (CellTiter-Glo) was used to detect the survival rate of the cells, and to calculate the half cytotoxic dose of cells CC50.
(§3) The frozen PBMC cells were placed in a 37° C. water bath. After the ice was completely melted, the cells were transferred to 3 ml of RPMI 1640 complete culture medium (containing 10% FBS), and then centrifuged at 1500 rpm for 3 minutes. After removing the supernatant, the cells were re-suspended for counting. 200 μL of 50,000 PBMC cells were added in a 96-well plate, and the compounds to be tested were diluted with different gradient concentrations. After 6 h, 150 μL of the cell supernatant was aspirated, and the concentrations of IL-6, TNF-, IFN-, and IFN- were measured using ELISA kits, and the curves of compound concentration and cytokine release were drawn to calculate the values of EC50. 50 μL of CTG solution was added to the remaining cell culture plate.

[3] = test system: STING signaling pathway; test: THP1-Blue ISG reporter assay (QUANTI-Blue); type: cell-based, human
Procedure: as §1

[4] = Cytotoxicity in PBMC (CellTiter-Glo); type: cell-based; settings: PBMC cells, CTG
Procedure: as §2, §3

[5] = test system: STING signaling pathway; test: IFN-β production in THP1 cells (ELISA); type: cell-based; settings: Homo sapiens, read-out: IFN-β EC50
Procedure: In this experiment, the function of sting agonists was evaluated by detecting the changes of IFN-β and CXCL10 (IP10) cytokines which were produced by the stimulation of the compounds to human peripheral blood mononuclear cell line THP1 cell (Shanghai Cell Bank). On the first day of the experiment, ELISA plates were coated according to the instructions of IFN-β (R&D, #DY814-05) and IP10 (BD, #550926) ELISA detection kits. The compound was dissolved in DMSO as a stock solution, which was diluted with culture medium to a 2× working concentration, and then added to a 96-well plate at 100 μL per well; THP1 cells in the logarithmic growth phase were counted and diluted to a concentration of 2*10^6/mL, which was then added at 100 μL per well to the aforementioned 96-well plate containing the compounds. After mixed, the above cells in the 96-well plate were incubated at 37° C. and 5% CO2 for 18 h. On the second day, the above cell culture supernatant was aspirated at 100 μL per well, and then their OD450 values were determined using the IFN-β and IP10 ELISA detection kits respectively. The obtained data was converted to the concentration of IFN-β and IP10 according to the standard curve, and the EC50 values were calculated using GraphPad 5.0 to fit the dose-effect curve.

[6] = ELISA of supernatant, read-out: IFN-β EC50
[7] = ELISA of supernatant, read-out: IL-6 EC50
[8] = ELISA of supernatant, read-out: TNF-α EC50
[9] = Homo sapiens, THP1-Blue ISG cells, 18 h incubation, QUANTI-Blue OD 620-655 nm, read-out: EC50
[10] = THP-1, THP1 cells, 18 h incubation, ELISA of culture supernatant
[11] = THP1-Blue ISG cells, 18 h incubation, QUANTI-Blue OD 620-655 nm, read-out: EC50

Structure (SMILES)	EC50 [2, 6] [µM]	EC50 [2, 7] [µM]	EC50 [2, 8] [µM]	EC50 [3, 9] [µM]	EC50 [5, 10] [µM]	CC50 at 18 h [1] [µM]	CC50 at 6 h [4] [µM]	other results
CCc1nc(C)sc1C(=O)Nc1nc2cc(C(N)=O)cc(OCCCN3CCN(C(=O)CCN)CC3)c2n1C/C=C/Cn1c(NC(=O)c2cc(C)nn2CC)nc2cc(C(N)=O)cc(SC)c21 [Example 1]	0.1 to 1	0.1 to 1	0.1 to 1	< 0.1	0.1 to 1	> 50	> 25	
CCc1nc(C)sc1C(=O)Nc1nc2cc(C(N)=O)cc(OCCCN3CCN(C(=O)OCCCN4CCNCC4)CC3)c2n1C/C=C/Cn1c(NC(=O)c2cc(C)nn2CC)nc2cc(C(N)=O)cc(SC)c21 [Example 6]					0.1 to 1			
CCc1nc(C)sc1C(=O)Nc1nc2cc(C(N)=O)cc(OCCCN3CCN(C(=O)OCCCC4CCNCC4)CC3)c2n1C/C=C/Cn1c(NC(=O)c2cc(C)nn2CC)nc2cc(C(N)=O)cc(SC)c21 [Example 8]								EC50 ([5]; THP-1, 18 h): 0.1 to 1 µM
CCc1nc(C)sc1C(=O)Nc1nc2cc(C(N)=O)cc(OCCCN3CCN(C(=O)OCCCN)CC3)c2n1C/C=C/Cn1c(NC(=O)c2cc(C)nn2CC)nc2cc(C(N)=O)cc(SC)c21 [Example 10]						> 50	> 40	EC50 ([2]; read-out: IFN-β EC50): 0.1 to 1 µM; EC50 ([2]; read-out: IL-6 EC50): 0.1 to 1 µM; EC50 ([2]; read-out: TNF-α EC50): 0.1 to 1 µM; EC50 ([3]; Homo sapiens, THP1-Blue ISG, 18 h): < 0.1 µM; EC50 ([5]; THP-1, 18 h): 0.1 to 1 µM
CCc1nc(C)sc1C(=O)Nc1nc2cc(C(N)=O)cc(OCCCN3CCN(CCN)CC3)c2n1C/C=C/Cn1c(NC(=O)c2cc(C)nn2CC)nc2cc(C(N)=O)cc(SC)c21 [Example 12]					> 1			
CCc1nc(C)sc1C(=O)Nc1nc2cc(C(N)=O)cc(SC)c2n1C/C=C/Cn1c(NC(=O)c2c(F)c(C)nn2CC)nc2cc(C(N)=O)cc(OCCCN3CCN(C(=O)OCCCC4CCNCC4)CC3)c21 [Example 14]	0.1 to 1	0.1 to 1	< 0.1	< 0.1	0.1 to 1	> 50	> 50	
CCc1nc(C)sc1C(=O)Nc1nc2cc(C(N)=O)cc(OCCCN3CCN(C(=O)OCCCC4CCNCC4)CC3)c2n1C/C=C/Cn1c(NC(=O)c2c(F)c(C)nn2CC)nc2cc(C(N)=O)cc(SC)c21 [Example 15]					0.1 to 1			
CCc1nc(C)sc1C(=O)Nc1nc2cc(C(N)=O)cc(OC)c2n1C/C=C/Cn1c(NC(=O)c2cc(C)nn2CC)nc2cc(C(N)=O)cc(OCCCN3CCNCC3)c21 [Example 20]	0.1 to 1	0.1 to 1	0.1 to 1	0.1 to 1		> 50	> 50	
CCc1nc(C)sc1C(=O)Nc1nc2cc(C(N)=O)cc(OCCCN3CCNCC3)c2n1C/C=C/Cn1c(NC(=O)c2cc(C)nn2CC)nc2cc(C(N)=O)cc(OC)c21 [Example 21]	0.1 to 1	0.1 to 1	< 0.1	< 0.1				
CCc1nc(C)sc1C(=O)Nc1nc2cc(C(N)=O)cc(OCCCN3CCN(C(=O)OCCCNC(=O)OCc4ccc(NC(=O)[C@H](CCCNC(N)=O)NC(=O)[C@@H](NC(=O)CCCCCN5C(=O)C=CC5=O)C(C)C)cc4)CC3)c2n1C/C=C/Cn1c(NC(=O)c2cc(C)nn2CC)nc2cc(C(N)=O)cc(SC)c21 [Example 40]		< 0.1	< 0.1					CC50 ([1]; 18 h): > 50 µM; EC50 [3, 11]: < 0.1 µM
CCc1nc(C)sc1C(=O)Nc1nc2cc(C(N)=O)cc(OCCCN3CCN(C(=O)C(C)(C)CCNC(=O)OCCCNC(=O)OCc4ccc(NC(=O)[C@H](CCCNC(N)=O)NC(=O)[C@@H](NC(=O)CCCCCN5C(=O)C=CC5=O)C(C)C)cc4)CC3)c2n1C/C=C/Cn1c(NC(=O)c2cc(C)nn2CC)nc2cc(C(N)=O)cc(SC)c21 [Example 41]		0.1 to 1	0.1 to 1			> 50		EC50 [3, 11]: < 0.1 µM

Further lines, with some results ahead:

EC50 [2, 6] [µM]	EC50 [2, 7] [µM]	EC50 [2, 8] [µM]	EC50 [3, 9] [µM]	EC50 [5, 10] [µM]	Structure (SMILES)	CC50 at 18 h [1] [µM]	CC50 at 6 h [4] [µM]	other results
0.1 to 1	0.1 to 1	0.1 to 1	< 0.1	0.1 to 1	CCc1nc(C)sc1C(=O)Nc1nc2cc(C(N)=O)cc(OCCCN3CCN(C(=O)CCCNC)CC3)c2n1C/C=C/Cn1c(NC(=O)c2cc(C)nn2CC)nc2cc(C(N)=O)cc(SC)c21 [Example 2]	> 50	> 40	
0.1 to 1	0.1 to 1	0.1 to 1	< 0.1	0.1 to 1	CCc1nc(C)sc1C(=O)Nc1nc2cc(C(N)=O)cc(OCCCN3CCN(C(=O)C(C)(C)CCN)CC3)c2n1C/C=C/Cn1c(NC(=O)c2cc(C)nn2CC)nc2cc(C(N)=O)cc(SC)c21 [Example 3]	> 50	> 40	
				> 1	CCc1nc(C)sc1C(=O)Nc1nc2cc(C(N)=O)cc(OCCCN3CCN(CCNC)CC3)c2n1C/C=C/Cn1c(NC(=O)c2cc(C)nn2CC)nc2cc(C(N)=O)cc(SC)c21 [Example 11]			
0.1 to 1	< 0.1	< 0.1	< 0.1	0.1 to 1	CCc1nc(C)sc1C(=O)Nc1nc2cc(C(N)=O)cc(SC)c2n1C/C=C/Cn1c(NC(=O)c2cc(C)nn2CC)nc2cc(C(N)=O)cc(OCCCN3CCN(C(=O)OCCCC4CCNCC4)CC3)c21 [Example 13]	> 50	> 50	
				> 1	CCc1nc(C)sc1C(=O)Nc1nc2cc(C(N)=O)cc(OCCCN3CCOCC3)c2n1C/C=C/Cn1c(NC(=O)c2c(F)c(C)nn2CC)nc2cc(C(N)=O)cc(SCCCN)c21 [Example 17]			
				> 1	CCc1nc(C)sc1C(=O)Nc1nc2cc(C(N)=O)cc(OCCCN3CCOCC3)c2n1C/C=C/Cn1c(NC(=O)c2c(F)c(C)nn2CC)nc2cc(C(N)=O)cc(SCCCNC(=O)OCCCC3CCNCC3)c21 [Example 18]			
				> 1	CCc1nc(C)sc1C(=O)Nc1nc2cc(C(N)=O)cc(OCCCN3CCOCC3)c2n1C/C=C/Cn1c(NC(=O)c2c(F)c(C)nn2CC)nc2cc(C(N)=O)cc(OCCCN)c21 [Example 19]			
